From US6960574B2, “Antagonists of RF-amide neuropeptides” (University of Florida, priority 2002, dated 2005)
Peptide text beside a SMILES is read from it. * marks the point of attachment. Dansyl = CN(C)c1cccc2c(S(=O)(=O)*)cccc12

system: not listed separately; assay: Immobilized artificial membrane (IAM) chromatography; assay type: physicochemical; settings: not given
Text: The purity of this new neuropeptide FF antagonist was confirmed by combustion analysis [Table 1] (data were within ±0.4% of calculated values) and ESI mass spectrometry (no impurities exceeding 1% based on relative ion abundance). […] The compounds were also characterized by immobilized artificial membrane (IAM) chromatography, a method that furnishes capacity factors whose logarithm generally correlates with in vivo absorption [Pidgeon, et al., J. Med. Chem. 1995, 38, 590-594] including penetration across the BBB [Reichel, et al., Pharm. Res. 1998, 15, 1270-1274].
The combinatorial libraries herein were prepared on a SynPep (Dublin, Calif.) multiple peptide synthesizer. A Synthor 2000, Peptide International (Louisville, Ky.) instrument was used for the preparation of the individual compounds by Fmoc chemistry. Immobilized artificial membrane (IAM) chromatography was performed on a system that included a model SP 8810 precision isocratic pump, an SP 8880 autosampler with a 20-μL injection loop, an SP 8450 variable wavelength UV/VIS detector operated at 254 nm, and SP 4290 computing integrator (all from ThermoSeparation|SpectraPhysics, Fremont, Calif.). RP-HPLC purification was done on a system composed of an SP 200 binary gradient pump (ThermoSeparation), a Rheodyne (Cotati, Calif.) model 7125 injector valve equipped with a 5-mL sample loop, and an SP 100 UV/VIS detector (ThermoSeparation) operated at 210 nm. Electrospray ionization (ESI) and tandem mass spectra were obtained on a quadrupole ion trap instrument (LCQ, Finnigan MAT, San Jose, Calif.). NMR spectra were recorded on Bruker AVANCE instruments (Bremen, Germany). Resonance frequencies were 500 and 600 MHz for ^1H and 127 MHz for ^13C. The samples were dissolved in H2O/D2O (8/2, v/v).

Row | Compound | kIAM′ (IAM capacity factor) | log kIAM′
1 | CN(C)c1cccc2c(S(=O)(=O)NCC(=O)NC(CO)C(=O)NC(CCCNC(=N)N)C(N)=O)cccc12 (stereo not drawn) [Compound 5, dansyl-Gly-Ser-Arg-NH2] (Dansyl-Gly-Ser-Arg-NH2; configuration not given here) | 8.0 | 0.90

system: naloxone-precipitated withdrawal symptoms; assay: not given; settings: compared with 3; cited from earlier work

Row | Compound | potency (or efficacy) in the pharmacological tests employed
2 | Pro-Phe-Arg(Tic)-NH2 [Compound 3a] | less than that of 3

same assay, conditions: systemic administration; cited from earlier work

Row | Compound | naloxone-precipitated withdrawal symptoms in morphine-dependent rats
3 | Pro-Phe-Arg(Tic)-NH2 [Compound 3a] | attenuated

target: receptor labeled by the radioiodinated analogue of 1 (4, [125I]-YLFQPQRF-NH2); neuropeptide FF receptor; assay: Competitive radioligand binding against 4 ([125I]Y8F-amide); settings: competition against 4

Row | Compound | Ki
4 | CN(C)c1cccc2c(S(=O)(=O)NCC(=O)NC(CO)C(=O)NC(CCCNC(=N)N)C(N)=O)cccc12 (stereo not drawn) [Compound 5, dansyl-Gly-Ser-Arg-NH2] (Dansyl-Gly-Ser-Arg-NH2; configuration not given here) | 1400 ± 500 nM

same assay, conditions: mixture-based positional scanning; difference from averaged radioligand displacement of whole library (0); about 80 a.u. = 10-fold change in Ki

Row | Compound | Relative Binding Index (RBI)
5 | CN(C)c1cccc2c(S(=O)(=O)NCC(=O)NC(CO)C(=O)NC(CCCNC(=N)N)C(N)=O)cccc12 (stereo not drawn) [Compound 5, dansyl-Gly-Ser-Arg-NH2] (Dansyl-Gly-Ser-Arg-NH2; configuration not given here) | 46 a.u.
6 | CC(C)[C@H](NC(=O)[C@H](CC(N)=O)NS(=O)(=O)c1cccc2c(N(C)C)cccc12)C(=O)N[C@@H](CCCNC(=N)N)C(N)=O [Dansyl-NVR-amide] (Dansyl-Asn-Val-Arg-NH2) | 8 a.u.
7 | C[C@@H](O)[C@H](NS(=O)(=O)c1cccc2c(N(C)C)cccc12)C(=O)N[C@@H](CC(=O)O)C(=O)N[C@@H](CCCNC(=N)N)C(N)=O [Dansyl-TDR-amide] (Dansyl-Thr-Asp-Arg-NH2) | −27 a.u.
8 | CSCC[C@H](NS(=O)(=O)c1cccc2c(N(C)C)cccc12)C(=O)N[C@@H](CCCNC(=N)N)C(=O)N[C@@H](CCCNC(=N)N)C(N)=O [Dansyl-MRR-amide] (Dansyl-Met-Arg-Arg-NH2) | −45 a.u.
9 | C[C@H](NC(=O)[C@@H](NS(=O)(=O)c1cccc2c(N(C)C)cccc12)[C@@H](C)O)C(=O)N[C@@H](CCCNC(=N)N)C(N)=O [Dansyl-TAR-amide] (Dansyl-Thr-Ala-Arg-NH2) | −58 a.u.
10 | CN(C)c1cccc2c(S(=O)(=O)N[C@@H](CCCCN)C(=O)N[C@@H](Cc3c[nH]c4ccccc34)C(=O)N[C@@H](CCCNC(=N)N)C(N)=O)cccc12 [Dansyl-KWR-amide] (Dansyl-Lys-Trp-Arg-NH2) | 34 a.u.
11 | C[C@H](NS(=O)(=O)c1cccc2c(N(C)C)cccc12)C(=O)N[C@@H](Cc1ccc(O)cc1)C(=O)N[C@@H](CCCNC(=N)N)C(N)=O [Dansyl-AYR-amide] (Dansyl-Ala-Tyr-Arg-NH2) | 11 a.u.
12 | CN(C)c1cccc2c(S(=O)(=O)N[C@@H](CO)C(=O)NCC(=O)N[C@@H](CCCNC(=N)N)C(N)=O)cccc12 [Dansyl-SGR-amide] (Dansyl-Ser-Gly-Arg-NH2) | 22 a.u.
13 | CN(C)c1cccc2c(S(=O)(=O)N[C@@H](Cc3c[nH]c4ccccc34)C(=O)N[C@@H](CCC(=O)O)C(=O)N[C@@H](CCCNC(=N)N)C(N)=O)cccc12 [Dansyl-WER-amide] (Dansyl-Trp-Glu-Arg-NH2) | 9 a.u.
14 | C[C@H](NS(=O)(=O)c1cccc2c(N(C)C)cccc12)C(=O)N[C@@H](CCCCN)C(=O)N[C@@H](CCCNC(=N)N)C(N)=O [Dansyl-AKR-amide] (Dansyl-Ala-Lys-Arg-NH2) | 10 a.u.
15 | CC[C@H](C)[C@H](NS(=O)(=O)c1cccc2c(N(C)C)cccc12)C(=O)N[C@@H](C)C(=O)N[C@@H](CCCNC(=N)N)C(N)=O [Dansyl-IAR-amide] (Dansyl-Ile-Ala-Arg-NH2) | −60 a.u.
16 | CN(C)c1cccc2c(S(=O)(=O)N[C@@H](Cc3ccccc3)C(=O)N[C@@H](Cc3c[nH]c4ccccc34)C(=O)N[C@@H](CCCNC(=N)N)C(N)=O)cccc12 [Dansyl-FWR-amide] (Dansyl-Phe-Trp-Arg-NH2) | 18 a.u.
17 | CN(C)c1cccc2c(S(=O)(=O)N[C@@H](CCC(N)=O)C(=O)N[C@@H](Cc3c[nH]cn3)C(=O)N[C@@H](CCCNC(=N)N)C(N)=O)cccc12 [Dansyl-QHR-amide] (Dansyl-Gln-His-Arg-NH2) | 16 a.u.
18 | CSCC[C@H](NC(=O)[C@H](C)NS(=O)(=O)c1cccc2c(N(C)C)cccc12)C(=O)N[C@@H](CCCNC(=N)N)C(N)=O [Dansyl-AMR-amide] (Dansyl-Ala-Met-Arg-NH2) | 12 a.u.
19 | CCC(C)C(NC(=O)C(Cc1ccccc1)NS(=O)(=O)c1cccc2c(N(C)C)cccc12)C(=O)NC(CCCNC(=N)N)C(N)=O (stereo not drawn) [Dansyl-FIR-amide] (Dansyl-Phe-Ile-Arg-NH2; configuration not given here) | 16 a.u.
20 | CN(C)c1cccc2c(S(=O)(=O)N[C@@H](CCC(=O)O)C(=O)N[C@@H](CCC(N)=O)C(=O)N[C@@H](CCCNC(=N)N)C(N)=O)cccc12 [Dansyl-EQR-amide] (Dansyl-Glu-Gln-Arg-NH2) | 30 a.u.

Row | Compound | Relative Binding Index (RBI)
21 | CN(C)c1cccc2c(S(=O)(=O)N[C@@H](CC(N)=O)C(=O)NCC(=O)N[C@@H](CCCNC(=N)N)C(N)=O)cccc12 [Dansyl-NGR-amide] (Dansyl-Asn-Gly-Arg-NH2) | 18 a.u.
22 | CC(C)[C@H](NC(=O)[C@@H](NS(=O)(=O)c1cccc2c(N(C)C)cccc12)C(C)C)C(=O)N[C@@H](CCCNC(=N)N)C(N)=O [Dansyl-VVR-amide] (Dansyl-Val-Val-Arg-NH2) | −9 a.u.
23 | CN(C)c1cccc2c(S(=O)(=O)N[C@@H](CCC(N)=O)C(=O)NCC(=O)N[C@@H](CCCNC(=N)N)C(N)=O)cccc12 [Dansyl-QGR-amide] (Dansyl-Gln-Gly-Arg-NH2) | 27 a.u.
24 | CN(C)c1cccc2c(S(=O)(=O)N[C@@H](CCCCN)C(=O)N[C@@H](CCCCN)C(=O)N[C@@H](CCCNC(=N)N)C(N)=O)cccc12 [Dansyl-KKR-amide] (Dansyl-Lys-Lys-Arg-NH2) | 22 a.u.
25 | CC[C@H](C)[C@H](NC(=O)[C@@H](NS(=O)(=O)c1cccc2c(N(C)C)cccc12)C(C)C)C(=O)N[C@@H](CCCNC(=N)N)C(N)=O [Dansyl-VIR-amide] (Dansyl-Val-Ile-Arg-NH2) | 2 a.u.
26 | CSCC[C@H](NC(=O)[C@H](CO)NS(=O)(=O)c1cccc2c(N(C)C)cccc12)C(=O)N[C@@H](CCCNC(=N)N)C(N)=O [Dansyl-SMR-amide] (Dansyl-Ser-Met-Arg-NH2) | 16 a.u.
27 | C[C@@H](O)[C@H](NS(=O)(=O)c1cccc2c(N(C)C)cccc12)C(=O)N[C@@H](Cc1c[nH]cn1)C(=O)N[C@@H](CCCNC(=N)N)C(N)=O [Dansyl-THR-amide] (Dansyl-Thr-His-Arg-NH2) | −14 a.u.
28 | C[C@@H](O)[C@H](NC(=O)[C@H](CCCCN)NS(=O)(=O)c1cccc2c(N(C)C)cccc12)C(=O)N[C@@H](CCCNC(=N)N)C(N)=O [Dansyl-KTR-amide] (Dansyl-Lys-Thr-Arg-NH2) | 30 a.u.
29 | CC(C)[C@H](NS(=O)(=O)c1cccc2c(N(C)C)cccc12)C(=O)N[C@@H](CCCNC(=N)N)C(=O)N[C@@H](CCCNC(=N)N)C(N)=O [Dansyl-VRR-amide] (Dansyl-Val-Arg-Arg-NH2) | −6 a.u.
30 | C[C@H](NS(=O)(=O)c1cccc2c(N(C)C)cccc12)C(=O)N[C@@H](Cc1ccccc1)C(=O)N[C@@H](CCCNC(=N)N)C(N)=O [Dansyl-AFR-amide] (Dansyl-Ala-Phe-Arg-NH2) | 11 a.u.
31 | CC(C)[C@H](NC(=O)[C@H](CO)NS(=O)(=O)c1cccc2c(N(C)C)cccc12)C(=O)N[C@@H](CCCNC(=N)N)C(N)=O [Dansyl-SVR-amide] (Dansyl-Ser-Val-Arg-NH2) | 12 a.u.
32 | CN(C)c1cccc2c(S(=O)(=O)N[C@@H](CC(=O)O)C(=O)N[C@@H](Cc3c[nH]cn3)C(=O)N[C@@H](CCCNC(=N)N)C(N)=O)cccc12 [Dansyl-DHR-amide] (Dansyl-Asp-His-Arg-NH2) | −11 a.u.
33 | C[C@H](NC(=O)[C@H](CC(=O)O)NS(=O)(=O)c1cccc2c(N(C)C)cccc12)C(=O)N[C@@H](CCCNC(=N)N)C(N)=O [Dansyl-DAR-amide] (Dansyl-Asp-Ala-Arg-NH2) | −55 a.u.
34 | C[C@H](NC(=O)[C@H](CCC(=O)O)NS(=O)(=O)c1cccc2c(N(C)C)cccc12)C(=O)N[C@@H](CCCNC(=N)N)C(N)=O [Dansyl-EAR-amide] (Dansyl-Glu-Ala-Arg-NH2) | −32 a.u.
35 | CN(C)c1cccc2c(S(=O)(=O)N[C@@H](Cc3ccc(O)cc3)C(=O)N[C@@H](Cc3cnc[nH]3)C(=O)N[C@@H](CCCNC(=N)N)C(N)=O)cccc12 [Dansyl-YHR-amide] (Dansyl-Tyr-His-Arg-NH2) | 1 a.u.

same assay, conditions: ratio of Ki values

Row | Compound | increase in binding affinity compared to 3
36 | CN(C)c1cccc2c(S(=O)(=O)NCC(=O)NC(CO)C(=O)NC(CCCNC(=N)N)C(N)=O)cccc12 (stereo not drawn) [Compound 5, dansyl-Gly-Ser-Arg-NH2] (Dansyl-Gly-Ser-Arg-NH2; configuration not given here) | approximately 10 fold
